Common to all, as to type: cell-based, mouse
Assay [1] relates to β-galactosidase in CMV-LacZ C2C12 myotubes. Description: CMV-LacZ secondary screen in C2C12 myotubes (β-Gal stabilizing assay). The following applies: C2C12 CMV-LacZ myotubes, fold relative to DMSO. The procedure, abridged: (§1)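 First, C2C12 myoblasts were transfected with a linearized CMV-LACZ vector and clonal lines selected by FDG β-gal assay. Then cells were exposed to compounds at 0.5, 1, 5, 10, 20 and 40 μM in 96-well format, two replicates each, and β-gal measured.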

The test system of assay [2] is α7 integrin (LacZ reporter in α7βgal+/− myoblasts). Nature of the assay: Myoblast α7+/LacZ integrin FDG assay (Burkin assay in myoblasts, 96-well). The following applies: α7+/LacZ myoblasts, 96-well.
Assay [3] relates to β-galactosidase in CMV-LacZ C2C12 myoblasts. Nature of the assay: CMV-LacZ secondary screen in C2C12 myoblasts (β-Gal stabilizing assay). The following applies: CMV-LacZ C2C12 myoblasts. The procedure, abridged: as §1
In assay [4] the test system is α7 integrin (LacZ reporter in α7+/LacZ myotubes). Description: Myotube α7 integrin FDG assay (Burkin assay in myotubes, 96-well). The following applies: myotubes.

Consider five compounds from patent US9980943B2, “Methods of treating muscular dystrophy” (BOARD OF REGENTS OF THE NEVADA SYSTEM OF HIGHER EDUCATION, …, priority 2013, dated 2018).

As for `CCOC(=O)c1sc(=N)n(-c2ccc(OC)cc2)c1C` [MLS000090135-01], the “CMV-LACZ in Myotubes, signal relative to DMSO” value in assay [1] (0.5 uM) turned out to be 1.0155; in assay [1] (1 uM) it was 1.1036; in assay [1] (5 uM), 0.7503; in assay [1] (10 uM), 1.0114; in assay [1] (20 uM), 1.1100; in assay [1] (40 uM) it was 1.1840. Besides, the “Burkin Assay in Myoblasts, signal relative to DMSO” value in assay [2] (0.5 uM) is 1.227; in assay [2] (1 uM), 1.166; in assay [2] (5 uM) it was 0.988; in assay [2] (10 uM), 1.018; in assay [2] (20 uM), 0.6029; in assay [2] (40 uM) it was 0.3956. The “CMV-LACZ in Myoblasts (β-galactosidase activity relative to DMSO)” value in assay [3] (0.5 uM) was found to be 1.0896; in assay [3] (1 uM) it was 0.9421; in assay [3] (5 uM), 0.9731; in assay [3] (10 uM), 0.9296; in assay [3] (20 uM), 0.6017; in assay [3] (40 uM) it was 0.3653. For the same compound, the “Burkin Assay in Myotubes, α7 integrin LacZ reporter signal relative to DMSO” value in assay [4] (0.5 uM) worked out at 1.042; in assay [4] (1 uM) it was 0.9598; in assay [4] (5 uM), 0.8747; in assay [4] (10 uM), 0.9078; in assay [4] (20 uM), 0.8015; in assay [4] (40 uM), 0.8215.

With `O=C(Cn1nc(-c2ccc(Cl)cc2)ccc1=O)N1CCC2(CC1)OCCO2` [MLS000689492-01], the “CMV-LACZ in Myotubes, signal relative to DMSO” value in assay [1] (0.5 uM) was determined as 1.0853; in assay [1] (1 uM), 1.2400; in assay [1] (5 uM) it was 1.0504; in assay [1] (10 uM), 1.0940; in assay [1] (20 uM), 1.0444; in assay [1] (40 uM) it was 0.9267. Moreover, the “Burkin Assay in Myoblasts, signal relative to DMSO” value is 1.073 in assay [2] (0.5 uM); 0.908 in assay [2] (1 uM); 0.94 in assay [2] (5 uM); 0.9431 in assay [2] (10 uM); 1.083 in assay [2] (20 uM); 0.9652 in assay [2] (40 uM). The “CMV-LACZ in Myoblasts (β-galactosidase activity relative to DMSO)” value in assay [3] (0.5 uM) is 0.9363; in assay [3] (1 uM) it was 1.0252; in assay [3] (5 uM), 1.0863; in assay [3] (10 uM) it was 0.8653; in assay [3] (20 uM), 1.0141; in assay [3] (40 uM), 1.0026. The “Burkin Assay in Myotubes, α7 integrin LacZ reporter signal relative to DMSO” value stood at 1.156 in assay [4] (0.5 uM); 1.138 in assay [4] (1 uM); 0.9311 in assay [4] (5 uM); 0.9292 in assay [4] (10 uM); 0.8836 in assay [4] (20 uM); 0.7544 in assay [4] (40 uM).

For `Cc1nnc(SCC(=O)c2ccc(Br)cc2)s1` [MLS000420298-01], the “CMV-LACZ in Myotubes, signal relative to DMSO” value in assay [1] (0.5 uM) was determined as 0.9573; in assay [1] (1 uM), 0.8527; in assay [1] (5 uM), 1.0338; in assay [1] (10 uM), 1.2388; in assay [1] (20 uM), 1.3660; in assay [1] (40 uM), 1.1250. The “Burkin Assay in Myoblasts, signal relative to DMSO” value in assay [2] (0.5 uM) was found to be 1.379; in assay [2] (1 uM), 1.243; in assay [2] (5 uM), 1.083; in assay [2] (10 uM), 1.1; in assay [2] (20 uM) it was 1.111; in assay [2] (40 uM) it was 0.9235. For the same compound, the “CMV-LACZ in Myoblasts (β-galactosidase activity relative to DMSO)” value in assay [3] (0.5 uM) turned out to be 1.2808; in assay [3] (1 uM), 0.9383; in assay [3] (5 uM), 0.8414; in assay [3] (10 uM) it was 1.0482; in assay [3] (20 uM), 0.9807; in assay [3] (40 uM), 1.1930. Further, the “Burkin Assay in Myotubes, α7 integrin LacZ reporter signal relative to DMSO” value is 0.9538 in assay [4] (0.5 uM); 1.0464 in assay [4] (1 uM); 0.9453 in assay [4] (5 uM); 0.9005 in assay [4] (10 uM); 0.91 in assay [4] (20 uM); 1.006 in assay [4] (40 uM).

Take `CC(C)(C)c1csc(NC(=O)c2cccnc2)n1` [MLS001164432-01]: the “CMV-LACZ in Myotubes, signal relative to DMSO” value in assay [1] (0.5 uM) worked out at 0.9248; in assay [1] (1 uM) it was 1.3543; in assay [1] (5 uM) it was 0.9500; in assay [1] (10 uM), 1.2418; in assay [1] (20 uM), 1.1358; in assay [1] (40 uM) it was 1.1179. Besides, the “Burkin Assay in Myoblasts, signal relative to DMSO” value is reported as 1.248 in assay [2] (0.5 uM); 1.1813 in assay [2] (1 uM); 1.091 in assay [2] (5 uM); 1.067 in assay [2] (10 uM); 0.7137 in assay [2] (20 uM); 0.6622 in assay [2] (40 uM). The “CMV-LACZ in Myoblasts (β-galactosidase activity relative to DMSO)” value in assay [3] (0.5 uM) amounted to 0.9600; in assay [3] (1 uM), 0.7842; in assay [3] (5 uM), 1.1387; in assay [3] (10 uM), 1.3183; in assay [3] (20 uM), 1.1059; in assay [3] (40 uM), 1.1289. In addition, the “Burkin Assay in Myotubes, α7 integrin LacZ reporter signal relative to DMSO” value is 0.8982 in assay [4] (0.5 uM); 0.9509 in assay [4] (1 uM); 0.9878 in assay [4] (5 uM); 0.9985 in assay [4] (10 uM); 0.7121 in assay [4] (20 uM); 0.8464 in assay [4] (40 uM).

For `CCOc1ccccc1NC(=O)COC(=O)CNS(=O)(=O)c1ccc(C)cc1` [MLS000393567-01], the “CMV-LACZ in Myotubes, signal relative to DMSO” value was 1.0400 in assay [1] (0.5 uM); 0.9524 in assay [1] (1 uM); 0.9322 in assay [1] (5 uM); 0.9858 in assay [1] (10 uM); 1.0160 in assay [1] (20 uM); 0.9100 in assay [1] (40 uM). Besides, the “Burkin Assay in Myoblasts, signal relative to DMSO” value was found to be 1.032 in assay [2] (0.5 uM); 1.051 in assay [2] (1 uM); 0.9724 in assay [2] (5 uM); 0.9325 in assay [2] (10 uM); 0.8334 in assay [2] (20 uM); 0.8705 in assay [2] (40 uM). The “CMV-LACZ in Myoblasts (β-galactosidase activity relative to DMSO)” value in assay [3] (0.5 uM) worked out at 1.2117; in assay [3] (1 uM), 1.1373; in assay [3] (5 uM), 0.6593; in assay [3] (10 uM), 0.8148; in assay [3] (20 uM) it was 1.0175; in assay [3] (40 uM) it was 1.1319. In addition, the “Burkin Assay in Myotubes, α7 integrin LacZ reporter signal relative to DMSO” value is on record as 0.8882 in assay [4] (0.5 uM); 0.9953 in assay [4] (1 uM); 0.9065 in assay [4] (5 uM); 0.8857 in assay [4] (10 uM); 0.8607 in assay [4] (20 uM); 0.9237 in assay [4] (40 uM).
